# Assay results as given in ChEMBL document CHEMBL5113408, “Design, synthesis and antitumour activity of novel 5(6)-amino-benzimidazolequinones containing a fused morpholine” (Eur J Med Chem, 2022).
# Activity calls are given as the source filed them. The calls are words filed in the database; no cut-off is given here.
# Assays:
# MGC-803 [1] = assay: Induction of apoptosis in human MGC-803 cells assessed as decrease in caspase 7 protein expression level at 1 to 4 uM incubated for 48 hrs by Western blot analysis; format: functional, cell-based; conditions: dose 1-4 µM
# MGC-803 [2] = assay: Activation of ROS/JNK signalling in human MGC-803 cells assessed as increase in p-JNK level at 1 to 4 uM by Western blot analysis; format: cell-based; conditions: filed as activator, dose 1-4 µM
# HGC-27 [3] = assay: Induction of DNA damage in human HGC-27 cells assessed as increase in p-Chk generation incubated for 48 hrs by Western blot analysis; format: functional, cell-based; conditions: DDE = dose-dependent effect
# MGC-803 [4] = assay: Inhibition of colony formation in human MGC-803 cells incubated for 24 hrs with fresh medium replacement for every two days measured for 11 days by crystal voilet staining based assay; format: functional, cell-based; conditions: dose 0.5-2 µM, time 11.0 day, DDE = dose-dependent effect
# HGC-27 [5] = assay: Induction of DNA damage in human HGC-27 cells assessed as increase in p-ATM generation incubated for 48 hrs by Western blot analysis; format: functional, cell-based; conditions: DDE = dose-dependent effect
# ECa-109 cell line = assay: Antiproliferative activity against human EC109 cells assessed as inhibition of cell growth by SRB assay; format: functional, cell-based
# MGC-803 [6] = assay: Induction of DNA damage in human MGC-803 cells assessed as increase in p-ATM generation incubated for 48 hrs by Western blot analysis; format: functional, cell-based; conditions: DDE = dose-dependent effect
# [7] = Toxicity in BALB/c mouse xenografted with human MGC-803 cells assessed as effect on AST level at 10 to 20 mg/kg, ip administered once every two days; format: organism-based; conditions: in vivo, dose 10-20 mg/kg
# MGC-803 [8] = assay: Induction of cell cycle arrest in human MGC-803 cells assessed as accumulation of cells at S phase at 4 uM incubated for 36 hrs by PI staining based flow cytometry analysis (reference value: 20.5%); format: functional
# [9] = Toxicity in BALB/c mouse xenografted with human MGC-803 cells assessed as effect on body weight at 10 to 20 mg/kg, ip administered once every two days; format: organism-based; conditions: in vivo, dose 10-20 mg/kg
# MGC-803 [10] = assay: Antitumor activity against human MGC-803 cells xenografted with BALB/c mouse assessed as reduction in tumor weight at 10 to 20 mg/kg, ip administered once every two days; format: functional, organism-based; conditions: dose 10-20 mg/kg
# MGC-803 [11] = assay: Antitumor activity against human MGC-803 cells xenografted with BALB/c mouse assessed as reduction in tumor growth at 10 to 20 mg/kg, ip administered once every two days; format: functional, organism-based; conditions: dose 10-20 mg/kg
# MGC-803 [12] = assay: Induction of DNA damage in human MGC-803 cells assessed as increase in gamma-H2AX generation incubated for 48 hrs by Western blot analysis; format: functional, cell-based; conditions: DDE = dose-dependent effect
# MGC-803 [13] = assay: Induction of cell cycle arrest in human MGC-803 cells assessed as accumulation of cells at G1 phase at 4 uM incubated for 36 hrs by PI staining based flow cytometry analysis (reference value: 45.8%); format: functional
# MGC-803 [14] = assay: Induction of cell cycle arrest in human MGC-803 cells assessed as accumulation of cells at G1 phase at 1 uM incubated for 36 hrs by PI staining based flow cytometry analysis (reference value: 45.8%); format: functional
# MGC-803 [15] = assay: Antitumor activity against human MGC-803 cells xenografted with BALB/c mouse assessed as atrophied cells at 10 to 20 mg/kg, ip administered once every two days; format: functional, organism-based; conditions: dose 10-20 mg/kg
# HGC-27 [16] = assay: Antiproliferative activity against human HGC-27 cells assessed as inhibition of cell growth incubated for 72 hrs by SRB assay; format: functional, cell-based; conditions: HGC-27, 72 h
# HGC-27 [17] = assay: Induction of apoptosis in human HGC-27 cells assessed as increase in cleaved caspase 7 protein expression level at 1 to 4 uM incubated for 48 hrs by Western blot analysis; format: functional, cell-based; conditions: dose 1-4 µM
# HGC-27 [18] = assay: Induction of cell cycle arrest in human HGC-27 cells assessed as accumulation of cells at S phase at 2 uM incubated for 36 hrs by PI staining based flow cytometry analysis (reference value: 8.87%); format: functional
# HGC-27 [19] = assay: Induction of apoptosis in human HGC-27 cells assessed as decrease in caspase 7 protein expression level at 1 to 4 uM incubated for 48 hrs by Western blot analysis; format: functional, cell-based; conditions: dose 1-4 µM
# MGC-803 [20] = assay: Activation of ROS/JNK signalling in human MGC-803 cells assessed as increase in p-ASK1 level by Western blot analysis; format: cell-based; conditions: filed as activator, dose 1-4 µM, DDE = dose-dependent effect
# MGC-803 [21] = assay: Induction of apoptosis in human MGC-803 cells assessed as decrease in caspase 9 protein expression level at 1 to 4 uM incubated for 48 hrs by Western blot analysis; format: functional, cell-based; conditions: dose 1-4 µM
# HGC-27 [22] = assay: Induction of apoptosis in human HGC-27 cells incubated for 48 hrs in presence of NAC by Annexin V-FITC and PI staining based flow cytometry analysis; format: functional
# HGC-27 [23] = assay: Induction of apoptosis in human HGC-27 cells assessed as decrease in caspase 3 protein expression level at 1 to 4 uM incubated for 48 hrs by Western blot analysis; format: functional, cell-based; conditions: dose 1-4 µM
# MGC-803 [24] = assay: Induction of cell cycle arrest in human MGC-803 cells assessed as accumulation of cells at G2/M phase at 4 uM incubated for 36 hrs by PI staining based flow cytometry analysis (reference value: 20.5%); format: functional
# HGC-27 [25] = assay: Antiproliferative activity against human HGC-27 cells assessed as inhibition of cell growth incubated for 24 to 72 hrs by SRB assay; format: functional, cell-based; conditions: dose 0.25-8 µM, time 24-72 hrs, DDE = dose-dependent effect
# MGC-803 [26] = assay: Antiproliferative activity against human MGC-803 cells assessed as inhibition of cell growth at 0.25 to 8 uM by SRB assay; format: functional, cell-based; conditions: dose 0.25-8 µM, time 24-72 hrs, TDE = time-dependent effect
# [27] = Toxicity in BALB/c mouse xenografted with human MGC-803 cells assessed as effect on liver at 10 to 20 mg/kg, ip administered once every two days measured after 15 days by H and E staining based assay; format: organism-based; conditions: in vivo, 360 h, dose 10-20 mg/kg, time 15 day
# MGC-803 [28] = assay: Antiproliferative activity against human MGC-803 cells assessed as inhibition of cell growth by SRB assay; format: functional, cell-based
# MGC-803 [29] = assay: Induction of cell cycle arrest in human MGC-803 cells assessed as accumulation of cells at G2/M phase at 1 uM incubated for 36 hrs by PI staining based flow cytometry analysis (reference value: 20.5%); format: functional
# MGC-803 [30] = assay: Antitumor activity against human MGC-803 cells xenografted with BALB/c mouse assessed as wrinkled nuclei at 10 to 20 mg/kg, ip administered once every two days; format: functional, organism-based; conditions: dose 10-20 mg/kg
# HGC-27 [31] = assay: Induction of apoptosis in human HGC-27 cells incubated for 48 hrs by Annexin V-FITC and PI staining based flow cytometry analysis; format: functional
# MGC-803 [32] = assay: Induction of mitochondrial membrane depolarization in human MGC-803 cells incubated for 48 hrs by flow cytometry analysis; format: functional, cell-based; conditions: dose 1-4 µM, DDE = dose-dependent effect
# HGC-27 [33] = assay: Induction of cell cycle arrest in human HGC-27 cells assessed as decrease in cyclin-B1 level at 1 to 4 uM by Western blot analysis; format: functional, cell-based; conditions: dose 1-4 µM
# [34] = Toxicity in BALB/c mouse xenografted with human MGC-803 cells assessed as effect on kidney at 10 to 20 mg/kg, ip administered once every two days measured after 15 days by H and E staining based assay; format: organism-based; conditions: in vivo, 360 h, dose 10-20 mg/kg, time 15 day
# MGC-803 [35] = assay: Induction of DNA damage in human MGC-803 cells assessed as increase in gamma-H2AX generation incubated for 24 hrs by immunofluorescence analysis; format: functional, cell-based
structure (smiles),measurement,setting,value
Cc1ccc(NC2=CC(=O)c3nc4n(c3C2=O)[C@H]2OC[C@@H](O)[C@H]2OC4)cc1C,Activity,MGC-803 [1],Active
same,Activity,MGC-803 [2],Active
same,Activity,HGC-27 [3],Dde
same,inhibition,MGC-803 [4],Dde
same,Activity,HGC-27 [5],Dde
same,IC50,ECa-109 cell line,2820 nM
same,Activity,MGC-803 [6],Dde
same,Activity,[7],Non-Toxic
same,Activity,MGC-803 [8],34.1%
same,Activity,[9],Non-Toxic
same,Activity,MGC-803 [10],Active
same,Activity,MGC-803 [11],Active
same,Activity,MGC-803 [12],Dde
same,Activity,MGC-803 [13],30.8%
same,Activity,MGC-803 [14],33.6%
same,Activity,MGC-803 [15],Active
same,IC50,HGC-27 [16],1740 nM
same,Activity,HGC-27 [17],Active
same,Activity,HGC-27 [18],10.7%
same,Activity,HGC-27 [19],Active
same,Activity,MGC-803 [20],Dde
same,Activity,MGC-803 [21],Active
same,Activity,HGC-27 [22],1.4%
same,Activity,HGC-27 [23],Active
same,Activity,MGC-803 [24],28.2%
same,Activity,HGC-27 [25],Dde
same,Activity,MGC-803 [26],Tde
same,Activity,[27],Non-Toxic
same,IC50,MGC-803 [28],860 nM
same,Activity,MGC-803 [29],23.5%
same,Activity,MGC-803 [30],Active
same,Activity,HGC-27 [31],54.5%
same,Activity,MGC-803 [32],Dde
same,Activity,HGC-27 [33],Active
same,Activity,[34],Non-Toxic
same,Activity,MGC-803 [35],Active
